Experimental findings from ChEMBL document CHEMBL3856191, “Structural modifications at the 6-position of thieno[2,3-d]pyrimidines and their effects on potency at FLT3 for treatment of acute myeloid leukemia” (Eur J Med Chem, 2016) are described below.

Series [1] concerns the target Mitogen-activated protein kinase 8 (Homo sapiens) (UniProt P45983). Kind of series: Inhibition of recombinant human JNK1alpha1 expressed in insect Sf21 cells assessed as remaining activity at 10 uM preincubated for 15 mins followed by ATF2 substrate addition for 30 mins in presence of [gamma-32P]ATP by […] assay. (In general: In TR-FRET formats the signal depends on donor and acceptor labels being close together.)

The target in series [2] is Tyrosine-protein kinase JAK2 (Homo sapiens) (UniProt O60674). The series can be described thus: Inhibition of recombinant human JAK2 expressed in insect cells assessed as remaining activity at 10 uM preincubated for 15 mins followed by poly(Glu:Tyr) substrate addition for 30 mins in presence of [gamma-32P]ATP by […] assay.
Chain of Tyrosine-protein kinase JAK2 (Homo sapiens) (O60674 whole entry): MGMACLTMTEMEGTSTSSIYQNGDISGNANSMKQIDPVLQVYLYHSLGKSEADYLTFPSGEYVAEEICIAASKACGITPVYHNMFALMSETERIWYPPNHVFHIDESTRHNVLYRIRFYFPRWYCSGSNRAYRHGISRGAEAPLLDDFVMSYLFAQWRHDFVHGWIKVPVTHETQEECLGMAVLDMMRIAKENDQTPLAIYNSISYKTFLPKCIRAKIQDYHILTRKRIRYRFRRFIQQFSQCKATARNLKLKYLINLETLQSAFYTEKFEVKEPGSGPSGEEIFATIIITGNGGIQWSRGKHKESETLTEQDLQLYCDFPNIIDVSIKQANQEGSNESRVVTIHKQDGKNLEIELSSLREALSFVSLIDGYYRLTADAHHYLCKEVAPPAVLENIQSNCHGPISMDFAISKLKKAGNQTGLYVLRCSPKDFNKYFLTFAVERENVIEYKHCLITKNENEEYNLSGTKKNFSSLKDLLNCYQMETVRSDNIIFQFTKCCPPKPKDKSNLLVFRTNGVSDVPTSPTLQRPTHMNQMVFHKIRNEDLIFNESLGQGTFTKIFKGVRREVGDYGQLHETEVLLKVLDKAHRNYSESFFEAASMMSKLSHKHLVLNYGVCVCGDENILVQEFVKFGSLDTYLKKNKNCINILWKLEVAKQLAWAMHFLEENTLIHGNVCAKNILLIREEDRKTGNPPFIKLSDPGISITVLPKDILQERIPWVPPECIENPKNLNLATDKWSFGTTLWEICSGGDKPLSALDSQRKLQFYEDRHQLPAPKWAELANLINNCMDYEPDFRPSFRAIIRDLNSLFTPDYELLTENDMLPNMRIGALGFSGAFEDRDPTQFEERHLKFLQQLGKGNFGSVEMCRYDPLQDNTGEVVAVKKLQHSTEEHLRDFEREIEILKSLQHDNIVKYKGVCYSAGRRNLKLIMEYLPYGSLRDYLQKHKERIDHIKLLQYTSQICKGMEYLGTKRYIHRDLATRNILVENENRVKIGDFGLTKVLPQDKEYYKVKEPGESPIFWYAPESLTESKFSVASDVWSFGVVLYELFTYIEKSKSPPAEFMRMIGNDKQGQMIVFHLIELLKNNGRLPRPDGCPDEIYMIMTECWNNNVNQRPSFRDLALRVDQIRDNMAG
A further series addresses Angiopoietin-1 receptor (Homo sapiens, UniProt Q02763). The series can be described thus: Inhibition of human TIE2 assessed as remaining activity at 10 uM preincubated for 15 mins followed by substrate addition measured after 30 mins in presence of [gamma-32P]ATP by […] assay.
The target in series [3] is T1, Receptor-type tyrosine-protein kinase FLT3 (Homo sapiens, UniProt P36888).
T1 sequence (P36888 whole entry): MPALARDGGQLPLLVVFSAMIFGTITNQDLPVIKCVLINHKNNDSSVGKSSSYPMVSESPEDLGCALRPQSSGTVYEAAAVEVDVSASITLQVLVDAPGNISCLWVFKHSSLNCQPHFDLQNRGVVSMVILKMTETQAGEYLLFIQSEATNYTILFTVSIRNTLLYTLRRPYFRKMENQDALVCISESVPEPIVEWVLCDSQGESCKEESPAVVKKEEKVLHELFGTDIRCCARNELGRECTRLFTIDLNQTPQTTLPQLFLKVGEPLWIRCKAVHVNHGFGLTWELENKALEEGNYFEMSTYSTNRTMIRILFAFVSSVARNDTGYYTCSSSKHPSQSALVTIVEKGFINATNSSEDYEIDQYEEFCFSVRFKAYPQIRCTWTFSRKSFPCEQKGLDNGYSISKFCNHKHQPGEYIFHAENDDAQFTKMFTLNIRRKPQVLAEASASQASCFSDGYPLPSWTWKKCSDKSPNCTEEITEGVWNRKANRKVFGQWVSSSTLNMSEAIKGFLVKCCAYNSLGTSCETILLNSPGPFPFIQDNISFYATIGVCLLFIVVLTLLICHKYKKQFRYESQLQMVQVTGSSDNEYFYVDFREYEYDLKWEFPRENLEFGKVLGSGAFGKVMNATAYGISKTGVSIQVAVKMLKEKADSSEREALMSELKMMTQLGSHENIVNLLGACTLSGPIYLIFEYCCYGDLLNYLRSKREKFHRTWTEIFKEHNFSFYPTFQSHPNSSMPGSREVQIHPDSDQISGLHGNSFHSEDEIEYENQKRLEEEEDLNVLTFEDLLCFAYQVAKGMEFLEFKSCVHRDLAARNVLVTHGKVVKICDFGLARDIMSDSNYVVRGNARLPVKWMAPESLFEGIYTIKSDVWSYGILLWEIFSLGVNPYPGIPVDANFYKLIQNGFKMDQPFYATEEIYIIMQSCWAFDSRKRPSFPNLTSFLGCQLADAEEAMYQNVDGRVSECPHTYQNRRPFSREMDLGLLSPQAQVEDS
The series can be described thus: biochemical. Format: cell-based, Sf21.
Description: Inhibition of recombinant human FLT3 expressed in insect Sf21 cells preincubated for 15 mins followed by poly(Glu:Tyr) substrate addition for 30 mins in presence of [gamma-32P]ATP by TR-FRET assay

In series [4] the target is PI3-kinase p110-delta/p85-alpha (Homo sapiens) (UniProt P27986+O00329). The series can be described thus: Inhibition of PI3K p110delta/p85alpha (unknown origin) assessed as remaining activity at 10 uM in presence of [gamma-32P]ATP by […] assay. In kind it is protein-complex assay.
In series [5] the target is Dual specificity mitogen-activated protein kinase kinase 1 (Homo sapiens) (UniProt Q02750). Kind of series: Inhibition of recombinant human MEK1 expressed in Escherichia coli assessed as remaining activity at 10 uM preincubated for 15 mins followed by myelin basic protein substrate addition for 30 mins in presence of [gamma-32P]ATP by […] assay.
Chain of Dual specificity mitogen-activated protein kinase kinase 1 (Homo sapiens) (Q02750 whole entry): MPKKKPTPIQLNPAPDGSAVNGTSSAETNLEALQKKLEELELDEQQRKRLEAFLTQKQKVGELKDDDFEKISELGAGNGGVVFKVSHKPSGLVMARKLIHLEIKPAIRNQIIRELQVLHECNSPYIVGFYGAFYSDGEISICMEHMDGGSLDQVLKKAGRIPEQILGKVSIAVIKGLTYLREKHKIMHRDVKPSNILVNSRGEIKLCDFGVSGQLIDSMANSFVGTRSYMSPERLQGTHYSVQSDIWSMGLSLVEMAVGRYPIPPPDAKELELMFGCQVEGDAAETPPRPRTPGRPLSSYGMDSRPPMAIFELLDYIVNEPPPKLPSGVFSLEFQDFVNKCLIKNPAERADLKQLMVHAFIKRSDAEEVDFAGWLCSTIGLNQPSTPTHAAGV
For series [6], the target named is Inhibitor of nuclear factor kappa-B kinase subunit beta (Homo sapiens) (UniProt O14920). The series can be described thus: Inhibition of recombinant human IKK-beta expressed in insect Sf21 cells assessed as remaining activity at 10 uM preincubated for 15 mins followed by IKKtide substrate addition for 30 mins in presence of [gamma-32P]ATP by […] assay.
Chain of Inhibitor of nuclear factor kappa-B kinase subunit beta (Homo sapiens) (O14920 whole entry): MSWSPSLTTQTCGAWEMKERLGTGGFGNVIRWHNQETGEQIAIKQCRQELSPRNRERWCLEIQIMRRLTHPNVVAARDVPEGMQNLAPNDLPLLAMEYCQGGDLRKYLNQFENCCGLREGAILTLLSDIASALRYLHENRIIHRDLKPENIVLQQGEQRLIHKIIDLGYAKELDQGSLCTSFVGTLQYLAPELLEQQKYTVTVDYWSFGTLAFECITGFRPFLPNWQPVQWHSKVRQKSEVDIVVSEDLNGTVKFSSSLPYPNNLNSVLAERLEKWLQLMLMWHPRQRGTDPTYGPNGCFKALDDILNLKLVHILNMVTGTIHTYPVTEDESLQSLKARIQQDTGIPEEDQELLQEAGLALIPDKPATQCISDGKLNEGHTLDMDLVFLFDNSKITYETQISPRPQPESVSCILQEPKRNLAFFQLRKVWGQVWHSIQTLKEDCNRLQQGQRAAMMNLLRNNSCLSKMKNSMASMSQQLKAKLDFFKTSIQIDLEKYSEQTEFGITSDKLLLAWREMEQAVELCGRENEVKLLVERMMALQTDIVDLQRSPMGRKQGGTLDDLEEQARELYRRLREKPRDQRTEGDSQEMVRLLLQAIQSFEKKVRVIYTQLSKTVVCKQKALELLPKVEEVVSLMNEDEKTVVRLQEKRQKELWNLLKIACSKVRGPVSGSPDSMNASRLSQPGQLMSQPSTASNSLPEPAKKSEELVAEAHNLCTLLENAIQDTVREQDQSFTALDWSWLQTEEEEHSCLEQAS
Series [7] concerns the target Mitogen-activated protein kinase 11 (Homo sapiens) (UniProt Q15759). The series can be described thus: Inhibition of human SAPK2b assessed as remaining activity at 10 uM in presence of [gamma-32P]ATP by […] assay.
Series [8] deals with Receptor-type tyrosine-protein kinase FLT3 (Homo sapiens, UniProt P36888, D835Y).
Description: Inhibition of human FLT3 D835Y mutant preincubated for 15 mins followed by poly(Glu:Tyr) substrate addition for 30 mins in presence of [gamma-32P]ATP by TR-FRET assay
In series [9] the target is Platelet-derived growth factor receptor beta (Homo sapiens) (UniProt P09619). The series can be described thus: Inhibition of recombinant human PDGFR-beta expressed in insect Sf21 cells assessed as remaining activity at 10 uM preincubated for 15 mins followed by poly(Glu:Tyr) substrate addition for 30 mins in presence of [gamma-32P]ATP by […] assay.
For series [10], the target named is Dual specificity mitogen-activated protein kinase kinase 6 (Homo sapiens) (UniProt P52564). Kind of series: Inhibition of human MKK6 assessed as remaining activity at 10 uM in presence of [gamma-32P]ATP by […] assay.
Chain of Dual specificity mitogen-activated protein kinase kinase 6 (Homo sapiens) (P52564 whole entry): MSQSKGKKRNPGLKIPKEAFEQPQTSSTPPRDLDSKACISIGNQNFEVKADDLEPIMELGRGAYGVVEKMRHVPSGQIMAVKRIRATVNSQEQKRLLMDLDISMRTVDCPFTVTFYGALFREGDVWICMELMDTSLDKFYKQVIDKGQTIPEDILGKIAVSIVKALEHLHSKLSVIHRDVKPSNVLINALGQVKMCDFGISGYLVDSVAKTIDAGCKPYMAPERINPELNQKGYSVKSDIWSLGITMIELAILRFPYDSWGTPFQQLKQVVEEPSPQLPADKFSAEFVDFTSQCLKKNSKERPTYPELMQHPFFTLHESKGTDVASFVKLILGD
Series [11] addresses Protein kinase C alpha type (Homo sapiens) (UniProt P17252). The series can be described thus: Inhibition of recombinant human PKC-alpha expressed in insect Sf9 cells assessed as remaining activity at 10 uM preincubated for 15 mins followed by Histone substrate addition for 30 mins in presence of [gamma-32P]ATP by […] assay.
Series [12] deals with Tyrosine-protein kinase Fes/Fps (Homo sapiens) (UniProt P07332). The series can be described thus: Inhibition of recombinant human FES expressed in insect Sf21 cells assessed as remaining activity at 10 uM preincubated for 15 mins followed by poly(Glu:Tyr) substrate addition for 30 mins in presence of [gamma-32P]ATP by […] assay.
Series [13] has as its target Vascular endothelial growth factor receptor 2 (Homo sapiens) (UniProt P35968). Kind of series: Inhibition of recombinant human KDR expressed in insect Sf21 cells assessed as remaining activity at 10 uM preincubated for 15 mins followed by poly(Glu:Tyr) substrate addition for 30 mins in presence of [gamma-32P]ATP by […] assay.
The target in series [14] is Proto-oncogene tyrosine-protein kinase receptor Ret (Homo sapiens) (UniProt P07949). Kind of series: Inhibition of recombinant human RET expressed in insect Sf21 cells assessed as remaining activity at 10 uM preincubated for 15 mins followed by poly(Glu:Tyr) substrate addition for 30 mins in presence of [gamma-32P]ATP by […] assay.
The nature of series [15]: Solubility of the compound in PBS at pH 7.4 after 1 hr by HPLC-MS analysis. In kind it is physicochemical.
A short description of series [16]: cells. The note with it: Homo sapiens, HL-60, 48 h.
Description: Growth inhibition of human HL60 cells expressing wild type FLT-3 after 48 hrs by XTT assay
Series [17] can be described thus: cells. The note with it: Homo sapiens, THP-1, 48 h.
Description: Growth inhibition of human THP1 cells expressing wild type FLT-3 after 48 hrs by XTT assay

The term IC50 denotes the point on the concentration scale where inhibition reaches its midpoint. Low values mean greater potency in that assay, high ones weaker potency in that assay. Broadly, the solubility is the concentration that dissolves in the medium under given conditions. Higher therefore signals a readily soluble substance. One may read the GI50 as the concentration giving 50% growth inhibition.

Chain of Angiopoietin-1 receptor (Q02763 whole entry): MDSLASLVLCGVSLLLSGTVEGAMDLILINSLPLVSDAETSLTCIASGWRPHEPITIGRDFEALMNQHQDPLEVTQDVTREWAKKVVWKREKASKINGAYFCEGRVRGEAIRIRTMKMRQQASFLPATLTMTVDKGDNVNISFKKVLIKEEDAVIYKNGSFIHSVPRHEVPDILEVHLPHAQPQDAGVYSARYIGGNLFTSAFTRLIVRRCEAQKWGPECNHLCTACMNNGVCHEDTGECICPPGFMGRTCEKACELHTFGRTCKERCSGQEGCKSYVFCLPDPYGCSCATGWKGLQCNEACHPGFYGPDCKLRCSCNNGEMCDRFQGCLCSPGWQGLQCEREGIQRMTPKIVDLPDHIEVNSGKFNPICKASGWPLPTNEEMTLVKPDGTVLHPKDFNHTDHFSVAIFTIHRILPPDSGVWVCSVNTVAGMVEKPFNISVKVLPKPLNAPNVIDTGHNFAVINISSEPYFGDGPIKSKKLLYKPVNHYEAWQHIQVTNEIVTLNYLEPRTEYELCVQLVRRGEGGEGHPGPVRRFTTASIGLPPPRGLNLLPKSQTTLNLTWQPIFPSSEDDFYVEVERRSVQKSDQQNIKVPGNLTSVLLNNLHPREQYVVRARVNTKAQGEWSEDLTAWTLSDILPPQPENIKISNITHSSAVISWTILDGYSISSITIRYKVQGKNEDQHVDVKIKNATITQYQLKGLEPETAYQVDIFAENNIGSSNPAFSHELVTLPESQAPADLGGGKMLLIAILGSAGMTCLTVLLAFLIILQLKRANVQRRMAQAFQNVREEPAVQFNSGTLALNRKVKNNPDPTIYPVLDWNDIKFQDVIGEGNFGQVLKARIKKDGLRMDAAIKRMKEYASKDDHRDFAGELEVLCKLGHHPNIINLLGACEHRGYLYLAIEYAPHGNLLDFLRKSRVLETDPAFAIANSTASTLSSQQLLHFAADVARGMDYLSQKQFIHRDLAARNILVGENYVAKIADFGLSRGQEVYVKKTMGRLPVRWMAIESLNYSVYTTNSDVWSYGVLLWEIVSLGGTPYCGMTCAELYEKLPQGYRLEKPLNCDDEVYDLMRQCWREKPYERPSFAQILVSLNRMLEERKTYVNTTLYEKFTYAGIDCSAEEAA
Chain of Mitogen-activated protein kinase 8 (Homo sapiens) (P45983 whole entry): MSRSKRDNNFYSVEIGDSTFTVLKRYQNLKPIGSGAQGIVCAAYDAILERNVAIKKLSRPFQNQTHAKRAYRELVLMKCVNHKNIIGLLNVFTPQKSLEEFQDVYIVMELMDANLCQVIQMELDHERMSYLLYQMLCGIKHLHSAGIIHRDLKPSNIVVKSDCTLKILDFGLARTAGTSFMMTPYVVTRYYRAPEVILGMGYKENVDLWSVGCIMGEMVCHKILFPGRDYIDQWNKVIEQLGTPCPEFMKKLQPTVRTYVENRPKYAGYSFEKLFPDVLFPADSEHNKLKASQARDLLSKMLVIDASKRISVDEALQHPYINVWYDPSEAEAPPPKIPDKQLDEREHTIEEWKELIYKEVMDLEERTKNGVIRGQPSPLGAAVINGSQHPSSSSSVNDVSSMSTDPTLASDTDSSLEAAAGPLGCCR

Regarding `CNCCOc1ccc(-c2sc3nc(-c4cccs4)nc(NN4C(=O)C=C(C)C4=O)c3c2C)cc1.Cl`, the Activity in series [1] stood at 96%; in series [2] it was 99%; at Angiopoietin-1 receptor, 16%; in series [4], 37%; in series [5], 103%; in [6], 63%. For the same compound, the Activity in [7] worked out at 90%; in [9] it was 88%; in series [10], 102%; in [11], 81%; in series [12], 78%; in [13] it was 53%. The Activity in [14] came out at 42%. In addition, the IC50 in series [3] amounted to 8.03 nM; in [8], 10.2 nM. Further, in [15], the solubility at 1 h stood at 2.96 µM. In addition, the 50% growth inhibitory concentration (GI50) in the series “cells [16]” came out at 250 nM; in the series “cells [17]”, 559 nM.
